# Source: publication PMC11134387, “Cancer-Stem-Cell Phenotype-Guided Discovery of a Microbiota-Inspired Synthetic Compound Targeting NPM1 for Leukemia” (JACS Au, 2024)
# Legend:
# [1] = test system: primary CD34+ cells from AML patients; test: Flow cytometry CD34-PE/Annexin V-FITC of primary HSCs from AML patients; type: cell-based, human; settings: 5μM, representative sample
# Procedure: The inhibition of NPM1, especially NPM1 C+ pathway (as shown in Figure 4), by UCM-13369 correlates with the increase of apoptosis observed in treated primary CD34+ cells upon staining with Annexin V (Figure 5C).
# CFU-E and CD34+ primary cells with and without UCM-13369 treatment were analyzed. The following monoclonal antibodies were used: CD34-PE, Annexin V-FITC (BD Biosciences). The cells were incubated with antibodies in PBS on ice for 15 min in the dark. The analysis of CD34+ and Annexin V+ subpopulation was carried out in a flow cytometer FACSCalibur (Becton Dickinson, Citometría y Microscopía de Fluorescencia core facility, UCM) and the data were processed using FlowJo_V10 software.
# [2] = Caspase-3 pathology analysis of treated mice; type: in vivo
# Procedure: Based on the encouraging results obtained in ex vivo models of AML, we further assessed the therapeutic potential of the new NPM1 inhibitor in vivo. Prior to the evaluation of the compound in an animal model of AML, in vivo pharmacokinetic studies were addressed. Following a single intraperitoneal administration of UCM-13369 at a dose of 25 mg/kg, levels of 200–600 μg/L were detected in mouse peripheral blood up to 6 h (Figure 6A). Plasma protein binding of the compound in mouse serum was measured using an equilibrium dialysis assay, indicating a bound fraction of 83 ± 1%. Next, the efficacy of the compound was evaluated in immunodeficient mice after injection of OCI-AML3-ffLuc-GFP cells as an AML animal model. […]
# (D) IHC analysis of a poptotic cells in a representative kidney
# sample from OC I-AML 3 xenograft mice treat ed with DMSO (vehicle, top) vs . UCM-
# 13369 treated mice (50 mg/kg, bottom) mice: H&E ( left) and cleav ed caspase- 3 (right).
# Scale bar: 100 μm. (E ) Dose-response curve of UCM-13369 in human renal proximal
# [3] = Viability of non-tumor fibroblast cell line; type: cell-based; settings: human, IMR90 non-tumor fibroblasts; @5 µM
# Procedure: (§1) The test compound was diluted in PBS.
# (§2) Viability (%) tum orsphere form ation (%)
# IMR90 fibroblasts = test: Viability of non-tumor fibroblast cell line; type: cell-based; settings: IMR90 fibroblasts, 5 μM
# Procedure: as §1, §2
# c-Myc = test: qPCR and Western blot of c-Myc in OCI-AML3 cells; type: cell-based
# Source text: We next studied the impact of UCM-13369 in the genes and/or expression levels of NPM1 and NPM1 C+ pathway components (Figure 4A), including the positive regulation of c-Myc[34] and the negative regulation of FBXW7 and the pro-apoptotic CASP8.[35] […] The inhibition of NPM1 was also observed in MOLM13 cells expressing WT NPM1 (Figure S1B). […]
# quantitative real-time PCR (qPCR), or were sorted using a FACS BD INFL UX cell sorter (BD Biosciences, Franklin Lakes, NJ, USA). All cells were maintained at 37 °C in a humidified incubator in an atmosphere of 5% CO2, and passaged every 2–3 days. […]
# Primary cells. […] After 72 h in maintenance cells were ready to start the assays. […]
# Colonospheres, mamospheres and colony formation unit assays. […] After 10 days (mamospheres and colonospheres) and 14 days (CFU-E) we quantified t he number of colonies/spheres and number of cell s (CFU-E) by […]
# RNA and DNA extraction and quantitative PCR (qPCR). […] Gene expression was studied from the extracted RNA, processed into cDNA to quantify the expression of NPM1 and c-MYC. […]
# The relative amount of targets was determined by the comparative Ct method.
# Western blot. […] Lysates wer e cl ear ed by centrifugation (14,000g, 4 °C, 30 min), protein concentration determined by Bradford […]
# Proteomic analysis. […] Follows the image of a Venn diagram showing the number of proteins detected in each of the pop ulations and the proteins that converg e […]
smiles,measurement,setting,value
"COc1ccc(C2Cc3[nH]c4ccccc4c3C(CCNCC3CC3)C2N)cc1 (stereo not drawn) [4b, 4-{2-[(Cyclopropylmethyl)amino]ethyl}-2-(4-methoxyphenyl)-2,3,4,9-tetrahydro-1H-carbazol-3-amine]",CD34+/AnnexinV+,[1],43.09%
same,Caspase-3 cleavage in kidney (in words),[2]; 50 mg/kg,some caspase-3 cleavage
same,"Toxicity in bone marrow and liver, caspase-3 pathology (in words)",[2]; data not shown,absence of toxicity
same,"viability at 48 h, 5 µM",[3],100%
same,Toxicity in nontumor cells (in words),IMR90 fibroblasts,not toxic
same,c-Myc levels (in words),c-Myc,reduced levels
